Measured values as given in ChEMBL document CHEMBL1129503, “4'-O-[2-(2-fluoromalonyl)]-L-tyrosine: a phosphotyrosyl mimic for the preparation of signal transduction inhibitory peptides” (J Med Chem, 1996).
Where a SMILES comes first, the peptide text is derived from it. The star is where a group is joined. X2 = O=C(O)C(F)(C(=O)O)*; X1 = O=C(O)C(C(=O)O)*

Legend:
[1] = Ionization constant (pKa2) by treating potentiometric titration data according to the method Noyes; type: physicochemical; details: read-out: pKa2
[2] = molecular target: T1, Tyrosine-protein phosphatase non-receptor type 1 (Homo sapiens, UniProt P18031); experiment: Inhibitory activity against Protein-tyrosine phosphatase 1B-mediated dephosphorylation of phosphorylated insulin receptor using (CHO) cell line transfected with an expression plasmid encoding the normal human insulin receptor [CHO/HIRc]
T1 sequence (P18031 whole entry): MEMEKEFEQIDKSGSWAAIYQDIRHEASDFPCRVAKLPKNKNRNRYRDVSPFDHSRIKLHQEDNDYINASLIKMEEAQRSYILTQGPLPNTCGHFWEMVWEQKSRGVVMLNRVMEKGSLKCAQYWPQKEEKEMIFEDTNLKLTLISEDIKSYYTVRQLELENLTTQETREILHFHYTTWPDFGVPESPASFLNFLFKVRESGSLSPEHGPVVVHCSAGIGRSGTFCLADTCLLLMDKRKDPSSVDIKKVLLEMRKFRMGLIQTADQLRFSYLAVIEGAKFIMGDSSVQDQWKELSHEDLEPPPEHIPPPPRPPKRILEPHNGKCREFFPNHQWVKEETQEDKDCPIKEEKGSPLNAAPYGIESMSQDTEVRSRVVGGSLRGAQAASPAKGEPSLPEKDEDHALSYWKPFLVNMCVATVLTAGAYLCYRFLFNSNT

[3] = Inhibition of binding to p85 Phosphatidylinositol 3-kinase C-terminal SH2 domain

| Compound | pKa [1] | IC50 [2] [µM] | IC50 [3] [µM] |
| --- | --- | --- | --- |
| O=C(O)C(F)(Oc1ccc2cc(Br)ccc2c1)C(=O)O | 2.84 | – | – |
| O=C(O)C(Oc1ccc2cc(Br)ccc2c1)C(=O)O | 3.91 | – | – |
| CC(=O)N[C@@H](CC(=O)O)C(=O)N[C@@H](C)C(=O)N[C@@H](CC(=O)O)C(=O)N[C@@H](CCC(=O)O)C(=O)N[C@@H](Cc1ccc(OC(C(=O)O)C(=O)O)cc1)C(=O)N[C@@H](CC(C)C)C(N)=O (Ac-DADEY(X1)L-NH2) | – | 10 | – |
| CC(=O)N[C@@H](CC(=O)O)C(=O)N[C@@H](C)C(=O)N[C@@H](CC(=O)O)C(=O)N[C@@H](CCC(=O)O)C(=O)N[C@@H](Cc1ccc(OC(F)(C(=O)O)C(=O)O)cc1)C(=O)N[C@@H](CC(C)C)C(N)=O (Ac-DADEY(X2)L-NH2) | – | 1 | – |
| CSCC[C@H](NC(=O)[C@@H]1CCCN1C(=O)[C@@H](NC(=O)[C@H](Cc1ccc(OC(C(=O)O)C(=O)O)cc1)NC(=O)[C@H](CC(=O)O)NC(C)=O)C(C)C)C(=O)N[C@@H](CC(C)C)C(N)=O (Ac-DY(X1)VPML-NH2) | – | – | 14 |
| CSCC[C@H](NC(=O)[C@@H]1CCCN1C(=O)[C@@H](NC(=O)[C@H](Cc1ccc(OC(F)(C(=O)O)C(=O)O)cc1)NC(=O)[C@H](CC(=O)O)NC(C)=O)C(C)C)C(=O)N[C@@H](CC(C)C)C(N)=O (Ac-DY(X2)VPML-NH2) | – | – | 18 |
